Source: patent US6620850B2, “Materials and methods for treatment of neurological disorders involving overactivation of glutamatergic ionotropic receptors” (University of Florida, priority 2001, dated 2003)

Key:
[1] = system: GluR-mediated miniature excitatory postsynaptic currents (mEPSCs) in hippocampal neurons; assay: mEPSCs in cultured rat hippocampal neurons, whole-cell patch clamp (normoxia); assay type: cell-based; conditions: for effect on GluR-mediated mEPSCs: cultured hippocampal neurons, normoxia, in presence of MK-801
[2] = versus 55-60 μM in healthy patients; cited from earlier work
Parkinson's disease = conditions: oral administration, patients; cited from earlier work
cocaine dependence = conditions: orally administered, patients; cited from earlier work

In the case of N[C@@H](Cc1ccccc1)C(=O)O [L-Phe, L-phenylalanine], the “effect on frequency of mEPSCs (concentration-dependence)” value ([1]; L-Phe 0.1-3 mM, normalized to control, 5 to 8 cells, P<0.01 compared to control) is listed as “concentration-dependence of attenuation of the frequency of mEPSCs”, the “effect on GluR-mediated mEPSCs” value [1] is listed as “significantly and reversibly attenuate” and the “blood concentration of L-Phe causing phenylketonuria (PKU)” value [2] is listed as > 1200 µM.

In the case of N[C@H](Cc1ccccc1)C(=O)O [D-phenylalanine], the “clinical benefit in Parkinson's disease” value (Parkinson's disease) is listed as “conferred some benefit”.

In the case of N[C@@H](Cc1ccc(O)cc1)C(=O)O [tyrosine], the “clinical benefit in cocaine dependence” value (cocaine dependence) is listed as “did not confer a benefit”.

In the case of N[C@@H](Cc1ccc(O)cc1)C(=O)O [L-Tyr, L-tyrosine], the “effect on GluR-mediated mEPSCs” value [1] is reported as “significantly and reversibly attenuate”.

With N[C@@H](Cc1c[nH]c2ccccc12)C(=O)O [L-Trp, L-Tryptophan] the “effect on GluR-mediated mEPSCs” value [1] was “significantly and reversibly attenuate”.
